Data: US6066642A, “Dihydropyridine-, pyridine-, benzopyran-4-one- and triazoloquinazoline derivative, their preparation and their use as adenosine receptor antagonists” (priority 1998, dated 2000)
Where two headings read alike, the source gives them in different places.

What was measured:
[1] = molecular target: T1, human A3 receptors (Homo sapiens, UniProt P0DMS8); experiment: radioligand binding, displacement of specific [125I]AB-MECA binding at human A3 receptors expressed in HEK-293 cells; conditions: for Ki: [125I]AB-MECA, read-out: Ki hA3
T1 construct: expressed in transfected cells; host or cells: HEK-293 cells (membranes)
T1 sequence (P0DMS8 1-318): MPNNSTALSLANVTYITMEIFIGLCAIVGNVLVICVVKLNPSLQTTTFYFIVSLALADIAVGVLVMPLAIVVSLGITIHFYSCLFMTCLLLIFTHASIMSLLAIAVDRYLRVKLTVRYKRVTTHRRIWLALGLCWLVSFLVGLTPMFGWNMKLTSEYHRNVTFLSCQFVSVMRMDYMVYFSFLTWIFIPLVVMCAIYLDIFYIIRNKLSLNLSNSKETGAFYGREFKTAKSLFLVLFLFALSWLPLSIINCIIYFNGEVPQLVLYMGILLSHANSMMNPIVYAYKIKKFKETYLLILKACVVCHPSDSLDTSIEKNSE
Procedure: A3 receptors expressed in HEK293 cells, in membranes, expressed as
binding displaced at 100 μM.

[2] = molecular target: T2, rat A3 receptor (Rattus norvegicus, UniProt P28647); experiment: A3-agonist-elicited inhibition of adenylyl cyclase in membranes from CHO cells stably expressing the rat A3 receptor; format: biochemical; conditions: compound 50 μM, 1 μM forskolin
T2 construct: expressed in transfected cells; host or cells: CHO cells (membranes)
T2 sequence (P28647 1-320): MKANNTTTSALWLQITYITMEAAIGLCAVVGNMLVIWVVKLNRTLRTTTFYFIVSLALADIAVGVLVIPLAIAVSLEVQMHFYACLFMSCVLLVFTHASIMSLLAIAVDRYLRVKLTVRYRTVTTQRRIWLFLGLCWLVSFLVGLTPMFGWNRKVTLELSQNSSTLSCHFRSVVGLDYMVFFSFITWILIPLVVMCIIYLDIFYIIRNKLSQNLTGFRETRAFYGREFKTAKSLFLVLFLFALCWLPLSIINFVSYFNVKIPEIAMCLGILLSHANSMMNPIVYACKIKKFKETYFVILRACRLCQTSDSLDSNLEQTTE
Procedure: ^a Assayed in membranes from CHO cells stably expressing the rat
A3 receptor in the presence of 1 μM forskolin.

[3] = molecular target: T3, A1 receptors (Rattus norvegicus, UniProt P25099); experiment: biochemical; format: binding; conditions: for Ki: rat brain membranes, read-out: Ki rA1
T3 sequence (P25099 1-326): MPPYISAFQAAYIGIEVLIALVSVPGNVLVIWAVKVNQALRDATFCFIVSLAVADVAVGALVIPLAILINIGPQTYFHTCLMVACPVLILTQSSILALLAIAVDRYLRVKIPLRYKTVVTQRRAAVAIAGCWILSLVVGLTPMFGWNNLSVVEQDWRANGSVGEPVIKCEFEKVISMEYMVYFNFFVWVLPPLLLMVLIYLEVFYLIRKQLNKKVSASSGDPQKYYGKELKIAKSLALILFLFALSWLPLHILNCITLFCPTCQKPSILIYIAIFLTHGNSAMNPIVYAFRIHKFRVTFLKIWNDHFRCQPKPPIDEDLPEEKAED
Procedure: ^a Displacement of specific [^3 H] PIA binding in rat brain
percentage of specific binding displaced at 100 μM.

[4] = molecular target: T4, A2a receptors (Rattus norvegicus, UniProt P30543); experiment: radioligand binding, displacement of specific [3H]CGS 21680 binding in rat striatal membranes; conditions: for Ki: [3H]CGS 21680, rat striatal membranes
T4 construct: Displacement of specific [^3 H]; from tissue; host or cells: rat striatal membranes
Procedure: ^b Displacement of specific [^3 H]
or as a percentage of specific binding displaced at 100 μM.

[5] = test system: adenosine receptors; conditions: pancreatic islets; cited from earlier work
[6] = test system: adenosine receptor; conditions: [3H]cyclohexyladenosine and [3H]1,3-diethyl-8-phenylxanthine; cited from earlier work
[7] = test system: bak protein in U-937 cells; experiment: expression of apoptosis-inducing protein bak by immunofluorescence, U-937 cells; format: cell-based
Procedure: (§1) Cells were fixed as following steps: 10 min with 1% formalin in PBS, 5 min with […] methanol and 2 min with ice cold acetone, then permebilized with 0.1% Nonidet P-40 for 20 min. After the preparation, the specimens were incubated step by step: 10% goat serum in PBS for 20 min, mouse monoclonal anti-bak antibody (5 μg/ml PBS-BSA) for 60 min, Rhodamine (TRITC)-conjugated AffiniPure Goat Anti-mouse IgG (H+L) in PBS-BSA for 60 min. The specimens were washed 3-5 times with PBS after every step. The glass slides were stored at 4° C. in the dark.
(§2) The mechanism of the apoptosis observed in response to either A3 agonists was investigated.

[8] = test system: bak protein in HL-60 cells; experiment: expression of apoptosis-inducing protein bak by immunofluorescence, HL-60 cells; format: cell-based
Procedure: as §1, §2

[9] = test system: U-937 cells; experiment: in situ end-labeling of fragmented nuclear DNA (TUNEL), U-937 cells; format: cell-based
Procedure: (§3) Cells were fixed by immersing slides in 4% methanol-free formaldehyde in PBS at pH 7.4, 4° C., for 25 min. Fixed cells were permeabilized in 0.2% Triton® X-100 in PBS at 4° C. for 5 min. After preincubation with […] Promega equilibration buffer for 10 min at room temperature, the cells were covered with 50 μl TdT incubation buffer and a coverslip and maintained at 37° C. for 60 min inside the dark humidified chamber to protect from dry and direct light. In order to stop the reaction, the coverslip was removed and the slides were immersed in 2×SSC for 15 min at room temperature. The cells were restained by propidium iodide 1 μg/ml in PBS for 15 min. After every step, the cells were rinsed 2-3 times with fresh PBS for 5 min each. Finally, the glass slides were sealed with nail polish. The slides were stored at 4° C. in the dark.
(§4) The evidence that DNA strand breaks, characteristic of apoptosis, are induced by the A3 antagonists was obtained using in situ end-labelingin-situ of fragmented nuclear DNA by terminal deoxynucleotidyl transferase (TUNEL method, Cooke, H., Trends in Biotech., 10, 23 (1992)), which incorporates a fluorescent label at the 3'-ends. […] In the control cultures and in those treated with 10 nM Cl-IB-MECA alone, spontaneous apoptosis occured in only 5-7% of the cells (Table 17). […] The reversal of antagonist-induced apoptosis by the agonist is similar to that observed for the growth curves, except that both agonist and antagonist were applied at lower concentrations.

[10] = test system: HL-60 cells; experiment: in situ end-labeling of fragmented nuclear DNA (TUNEL), HL-60 cells; format: cell-based
Procedure: as §3, §4

[11] = test system: HL-60 cells; experiment: live cell counting with trypan blue (cell death/proliferation), HL-60 cells; format: cell-based
Procedure: (§5) The HL-60 cells were maintained in RPMI 1640 supplmented with 10% fetal calf serum, 100 units/ml penicillin, […] streptomycin and 2 mM L-glutamine. The cells were split every third day, and 2 days before each experiment cultures were diluted to 2×10^5 cells/ml. For analysis of DNA content, aliquots of 2 ml were placed into 12-well flat-bottomed plates (Costar, Cambridge, Mass., U.S.A.) containing 2~6 μl test-compound solutions at defined concentrations or 6 μl DMSO (diluting medium). Live cell counting was carried out using 0.1% trypan blue.
(§6) In the latter assay, cell death was studied in HL-60 cells (FIGS. 11A-B) and in U-937 cells (FIGS. 11C-D) over a time course of 9 days. Cells in culture receiving no drug treatment proliferated geometrically until nearly the end of the experiment.

[12] = test system: U-937 cells; experiment: live cell counting with trypan blue (cell death/proliferation), U-937 cells; format: cell-based
Procedure: as §5, §6

[13] = IB-MECA 10^-6 M, read-out: % Inhibition of adenylyl cyclase, IB-MECA (10^-6 M)
[14] = IB-MECA 10^-7 M, read-out: % Inhibition of adenylyl cyclase, IB-MECA (10^-7 M)
[15] = Table 17, antagonist 50 nM plus Cl-IB-MECA 10 nM, 48 hour
[16] = Table 17, antagonist 50 nM, 48 hour
[17] = antagonist 0.5 μM plus 0.01 or 1.0 μM Cl-IB-MECA

T4 sequence (P30543 whole entry): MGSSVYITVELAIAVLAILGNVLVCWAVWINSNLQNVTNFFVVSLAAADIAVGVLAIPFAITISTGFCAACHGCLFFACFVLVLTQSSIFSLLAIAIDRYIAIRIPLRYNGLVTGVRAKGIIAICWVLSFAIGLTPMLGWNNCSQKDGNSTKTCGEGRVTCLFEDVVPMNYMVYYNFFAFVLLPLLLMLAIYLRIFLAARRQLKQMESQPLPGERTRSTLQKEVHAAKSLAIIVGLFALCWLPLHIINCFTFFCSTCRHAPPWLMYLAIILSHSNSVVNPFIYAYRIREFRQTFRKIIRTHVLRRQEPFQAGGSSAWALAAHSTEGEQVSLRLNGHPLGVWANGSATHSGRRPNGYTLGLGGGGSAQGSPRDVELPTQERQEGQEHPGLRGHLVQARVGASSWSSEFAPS

## COc1ccc2c(c1)C(=O)[C@H](O)[C@@H](/C=C/c1ccccc1)O2 (relative stereo) [Compound 15]
[1]
  rA1/hA3: > 8
[1]; Table 4, HEK-293 membranes
  Ki: 21.1 µM
[2]; [13]
  inhibition at 50 µM: 39.2 ± 3%
[2]; [14]
  inhibition at 50 µM: 25.9 ± 2.4%
[3]; Table 4, 10^-4 M, read-out: displacement of specific binding rA1
  inhibition at 100 µM: < 10%
[4]; Table 4, 10^-4 M, read-out: displacement of specific binding rA2a
  inhibition at 100 µM: < 10%

## O=c1c(O)c(-c2ccccc2)oc2cc(O)cc(O)c12 [Compound 1, galangin, reference compound]
[2]; [13]
  inhibition at 50 µM: 35.3 ± 7.2%
[2]; [14]
  inhibition at 50 µM: 23.7 ± 5.1%
[3]; Table 3, [3H]PIA
  Ki: 0.863 ± 0.092 µM
[4]; Table 3, read-out: Ki rA2a
  Ki: 0.966 ± 0.164 µM

## CCOc1cc(OCC)c2c(=O)c(OCC)c(-c3ccccc3)oc2c1 [Compound 3a, 3,5,7-Triethoxyflavone]
[2]; [13]
  inhibition at 50 µM: 19.1 ± 7.4%
[2]; [14]
  inhibition at 50 µM: 2.2 ± 2.2%
[3]; Table 3, [3H]PIA
  Ki: 0.603 µM
[4]; Table 3, read-out: Ki rA2a
  Ki: 3.31 µM

## CCOc1c2ccoc2cc2oc(/C=C/c3ccccc3)cc(=O)c12 [Compound 20, 4-ethyloxy-7-trans-styryl-visnagin]
[2]; [13]
  inhibition at 50 µM: 40.9 ± 3.7%
[2]; [14]
  inhibition at 50 µM: 21.2 ± 3.9%
[3]; Table 5, [3H]PIA
  Ki: 35.6 ± 12.7 µM
[4]; Table 5, read-out: Ki rA2a
  Ki: 33.8 ± 14.8 µM

## COC(=O)C1=C(C)NC(C)=C(C(=O)OC)C1c1ccccc1[N+](=O)[O-] [Compound 60, nifedipine]
[5]
  interaction with adenosine receptors mediating inhibition of insulin secretion: may not interact with adenosine receptors
[6]
  effect on adenosine receptor binding: potent in reducing the binding

## O=C(Cc1ccccc1)Nc1nc2ccc(Cl)cc2c2nc(-c3ccco3)nn12 [Compound 153, 9-Chloro-2-(2-furyl)-5-phenylacetylamino[1,2,4]triazolo [1,5-c]quinazoline]
[7]; 10 nM
  expression of bak protein, U-937: induced
[3]; Table 15, [3H]PIA
  Ki: 0.305 ± 0.051 µM
[8]; 10 nM
  expression of bak protein, HL-60: induced
[4]; Table 15, read-out: Ki rA2A
  Ki: 0.052 ± 0.0088 µM

## CC(C)(C)OC(=O)NCCCC(=O)Nc1nc2ccc(Cl)cc2c2nc(-c3ccco3)nn12 [Compound 154]
[1]; Table 15, HEK membranes
  Ki: 0.032 µM
[3]; Table 15, [3H]PIA
  Ki: 0.0913 ± 0.0132 µM
[4]; Table 15, read-out: Ki rA2A
  Ki: 0.173 µM

## NCCCC(=O)Nc1nc2ccc(Cl)cc2c2nc(-c3ccco3)nn12 [Compound 155]
[1]; Table 15, HEK membranes
  Ki: 0.0152 ± 0.0066 µM
[3]; Table 15, [3H]PIA
  Ki: 0.0113 ± 0.0024 µM
[4]; Table 15, read-out: Ki rA2A
  Ki: 0.014 µM

## O=C(Nc1nc2ccc(Cl)cc2c2nc(-c3ccc(Br)o3)nn12)c1ccccc1 [Compound 156]
[1]; Table 15, HEK membranes
  Ki: 0.856 ± 0.156 µM
[3]; Table 15, [3H]PIA
  Ki: > 1 µM
[4]; Table 15, read-out: Ki rA2A
  Ki: > 1 µM

## O=c1[nH]c2ccc(Cl)cc2c2nc(-c3ccco3)nn12 [Compound 158, 9-Chloro-2-(2-furyl)[1,2,4]triazolo[1,5-c]quinazolin-5-(6H)-one]
[1]; Table 15, HEK membranes
  Ki: 0.26 ± 0.087 µM
[3]; Table 15, [3H]PIA
  Ki: 3 µM
[4]; Table 15, read-out: Ki rA2A
  Ki: 4 µM

## O=C(C=Cc1ccccc1)Nc1nc2ccc(Cl)cc2c2nc(-c3ccco3)nn12 [Compound 161]
[1]; Table 16, HEK membranes
  Ki: 0.06 ± 0.0063 µM
[3]; Table 16, [3H]R-PIA
  Ki: 0.282 ± 0.071 µM
[4]; Table 16, read-out: Ki rA2A
  Ki: 0.0598 ± 0.0134 µM

## CN1C=CC2=C(CC(=O)O)Cn3nc(-c4ccccc4)nc3C2=C1 [Compound L-249313, 6-carboxymethyl-5,9-dihydro-9-methyl-2-phenyl-[1,2,4]triazolo[5,1-a][2,7]-naphthyridine]
[9]; 50 nM, 24 h, approximately
  fluorescent labeling of apoptotic cells, U-937: 30-40%
[9]; [15]
  Percentage of apoptotic cells, U937, + Cl-IB-MECA: 10.9 Percentage
[9]; [16]
  Percentage of apoptotic cells, U937: 30.8 Percentage
[7]; 24 hours
  bak labeling, U-937: present
[10]; 50 nM, 24 h, approximately
  fluorescent labeling of apoptotic cells, HL-60: 30-40%
[10]; [15]
  Percentage of apoptotic cells, HL-60, + Cl-IB-MECA: 12.0 Percentage
[10]; [16]
  Percentage of apoptotic cells, HL-60: 31.2 Percentage
[11]; 0.5 μM alone
  inhibition of proliferation, HL-60: general inhibition of proliferation of cells
[11]; [17]
  growth curve with A3 antagonist plus Cl-IB-MECA, HL-60: the growth curves were nearly coincident with control curves
[8]; 24 hours
  bak labeling, HL-60: present
[12]; 0.5 μM alone
  inhibition of proliferation, U-937: general inhibition of proliferation of cells
[12]; [17]
  growth curve with A3 antagonist plus Cl-IB-MECA, U-937: the growth curves were nearly coincident with control curves

## COc1ccc([C@@H]2Sc3ccccc3N(CCN(C)C)C(=O)[C@@H]2OC(C)=O)cc1 [diltiazem]
[6]
  effect on adenosine receptor binding: negligible effects on adenosine receptor binding

## COc1ccc(CCN(C)CCCC(C#N)(c2ccc(OC)c(OC)c2)C(C)C)cc1OC (stereo not drawn) [verapamil]
[5]
  interaction with adenosine receptors mediating inhibition of insulin secretion: may not interact with adenosine receptors
[6]
  effect on adenosine receptor binding: negligible effects on adenosine receptor binding
